This is an account of results in US20090291857A1, “METHODS TO IDENTIFY INHIBITORS OF THE UNFOLDED PROTEIN RESPONSE” (THE BOARD OF TRUSTEES OF THE LELAND STANFORD JUNIOR …, priority 2006, published 2009).

For the experiment, the system named is caspase-3. Nature of the experiment: Cleavage of caspase-3 in HT1080 cells. The class given is cell-based, human. To be noted: 2.5 μM. The procedure: A. Effect of irestatin 9389 on PERK and ATF6 pathways. HT1080 cells were treated with vehicle alone (lanes 1-4) or 2.5 μM irestatin 9389 (lanes 5-8) and cultured under aerobic conditions for 18 hours (N) or shifted to hypoxia for the indicated times. Protein lysates were analyzed by Western blot analysis using antisera specific for ATF6 (top), CHOP/GADD153 (middle) or actin (bottom). Arrow indicates the cleaved, transcriptionally active form of ATF6. B. Cleavage of caspase-3 in irestatin-treated cells under hypoxia. HT1080 cells were cultured in normoxia (N) or under hypoxia for 36 hours (H 36) in absence or presence of irestatin 9389 (2.5 μM). Arrows indicate proteolytically cleaved caspase-3. C. Colony formation assay. HT1080 cells were treated as in B under normoxia (N) or hypoxia for 48 hours (H 48). Cells were harvested, counted, and allowed to grow under normal culture conditions for 11-12 days. Colonies were visualized with crystal violet staining. D. Quantification of clonogenic survival assay. Values represent the mean+/−SEM from at least 4 independent experiments. E. TUNEL staining of cells treated as in C. F. Quantification of TUNEL-positive cells. Values represent the mean+/−SEM from at least 3 experiments. […] Cells were harvested at the indicated times and counted by hemocytometer. Values represent the mean calculated from triplicate experiments +/−SEM. […]

In the case of `Cc1csc(NC(=O)CSc2nc3c(c(C(F)(F)F)c2C#N)CCC3)n1` [Compound 9389], the “cleavage of caspase-3 under hypoxia” value (36 hours of hypoxia) was “stimulated cleavage of caspase-3”. Further, the “caspase-3 processing under normal oxygen” value (normal oxygen conditions) was “no effect on caspase-3 processing”.
